# Laboratory results taken from paper PMC12775434, “Ultra-large virtual screening unveils potent agonists of the neuromodulatory orphan receptor GPR139” (Nature Communications, 2025).
# “And” between values parts separate entries of the source, which are not always exact repeats. Identical values can stand only once.
# System: C57BL/6 J mice
# Assay: Open-field test (locomotion and thigmotaxis)
# Type: in vivo, mouse
# Design: Total distance travelled in 50 mins (Figure 6a) / Open-field test, locomotion over time (sheet 6b) / Open-field test, thigmotaxis, whole session (sheet 6c): unit not given here
# Conditions: for Total distance travelled in 50 mins (Figure 6a) / Open-field test, locomotion over time (sheet 6b) / Open-field test, thigmotaxis over time (sheet 6d) / Open-field test, thigmotaxis, whole session (sheet 6c): individual mice
# Experimental: Adult […] C57BL/6 J mice (3-6 months old) were provided by Charles River. Both females and males (15 females and 9 males) were used in this study. Sex was evenly distributed across experimental groups. Sex was not considered in the study design or analysis, as no reports indicate differential expression levels of GPR139 between male and female mice. They were housed with ad libitum food and water, in a temperature and humidity-controlled environment under a standard 12 h light/dark cycle. The experiments were performed in agreement with the European Council Directive (86/609/EEC) and approved by the local Animal Ethics Committee at Karolinska Institute (3218-2022). All efforts were made to minimize suffering and the number of animals used. Mice were treated with either 10% DMSO + 10% solutol HS-15 + 80% saline (vehicle, n = 8), compound 1.5 (n = 8, 30 mg/kg i.p.), or JNJ-63533054 (n = 8, 30 mg/kg i.p.), both of which were dissolved in 10% DMSO + 10% solutol HS-15 + 80% saline. Mice were placed in an open field arena 10 min after the injection and recorded for 50 min. Total distance travelled and the time spent in the periphery arena were measured using an automated video tracking system (EthoVision XT 11.5; Noldus). One-way ANOVA followed by Dunnett’s multiple comparisons test and Two-way ANOVA followed by Tukey’s multiple comparisons test were used. Brain and blood samples were taken immediately after the locomotion test. The brain samples were quickly frozen, and blood was drawn from the cervical vein upon decapitation into EP tubes. The samples were immediately centrifuged for 10 min at 3000 × g at 4 °C, and the plasma was transferred into clean polypropylene tubes. All samples were stored at −80 °C before analysis.
SMILES,Total distance travelled in 50 mins (Figure 6a) (30 mg/kg i.p.),"Open-field test, locomotion over time (sheet 6b) (5 mins)","Open-field test, thigmotaxis over time (sheet 6d) (5 mins, in % (unit assumed))","Open-field test, locomotion over time (sheet 6b) (10 mins)","Open-field test, thigmotaxis over time (sheet 6d) (10 mins, in % (unit assumed))","Open-field test, locomotion over time (sheet 6b) (15 mins)","Open-field test, thigmotaxis over time (sheet 6d) (15 mins)","Open-field test, locomotion over time (sheet 6b) (20 mins)","Open-field test, thigmotaxis over time (sheet 6d) (20 mins)","Open-field test, locomotion over time (sheet 6b) (25 mins)","Open-field test, thigmotaxis over time (sheet 6d) (25 mins)","Open-field test, locomotion over time (sheet 6b) (30 mins)","Open-field test, thigmotaxis over time (sheet 6d) (30 mins)","Open-field test, locomotion over time (sheet 6b) (35 mins)","Open-field test, thigmotaxis over time (sheet 6d) (35 mins)","Open-field test, locomotion over time (sheet 6b) (40 mins)","Open-field test, locomotion over time (sheet 6b) (45 mins)","Open-field test, thigmotaxis over time (sheet 6d) (45 mins)","Open-field test, locomotion over time (sheet 6b) (50 mins)","Open-field test, thigmotaxis over time (sheet 6d) (50 mins)",also measured
"Cc1nocc1-c1nc(CC(=O)NC(C)c2ccccc2)no1 (stereo not shown) [Compound 1.5, CC(C1=CC=CC=C1)NC(CC2=NOC(C3=CON=C3C)=N2)=O]",3619.7 and 1516.14 and 932.636 and 2008.89 and 11482.8 and 3961.35 and 3158.61 and 1417.56,1534.71 and 1388.77 and 1295.98 and 638.887 and 1035.03 and 624.833 and 367.922 and 520.924,58.4267 and 77.1733 and 70.76 and 76.5333 and 44.5867 and 92.2133 and 78.64 and 98.2267,944.829 and 1045.75 and 698.474 and 211.083 and 1038.45 and 297.32 and 169.554 and 251.751,57.6133 and 89.2933 and 80.9867 and 94.6933 and 45.7733 and 98.64 and 97.4267 and 99.88,724.917 and 289.775 and 194.585 and 64.0034 and 579.982 and 38.8587 and 84.0131 and 202.975,79.1867 and 87.4267 and 100 (4×) and 67.5067 and 98.8533,43.478 and 341.627 and 152.166 and 3.91 and 301.879 and 49.2379 and 23.1583 and 69.7204,100 (5×) and 93.36 and 86.0667 and 98.92,1347.85 and 148.793 and 124.524 and 4.2615 and 37.5095 and 24.1112 and 17.1945 and 57.9976,75.1067 and 91.4267 and 100 (6×),1735.43 and 147.426 and 152.999 and 41.6297 and 15.7939 and 39.7283 and 43.7378 and 9.443,59.8267 and 99.36 and 97.2933 and 98.9733 and 100 (3×) and 97.7867,1485.83 and 64.3909 and 126.684 and 26.842 and 6.448 and 42.921 and 11.8566 and 37.4144,59.8533 and 100 (6×) and 99.44,1609.58 and 127.219 and 108.3 and 183.443 and 63.0073 and 201.855 and 59.5513 and 1.7683,1163.43 and 158.947 and 183.999 and 73.8724 and 168.393 and 37.8929 and 22.5543 and 382.596,64.4933 and 94.68 and 93.2533 and 100 (4×) and 88.1333,892.776 and 248.648 and 120.895 and 169.632 and 373.205 and 159.384 and 133.094 and 474.296,89.68 and 89.52 and 96.2267 and 100 (3×) and 96.5733 and 99.2533,"Open-field test, thigmotaxis over time (sheet 6d) (40 mins, in % (unit assumed)): 53.72 and 93.1467 and 46.96 and 98.3067 and 97.52 and 91.5467 and 99.2 and 100; Open-field test, thigmotaxis, whole session (sheet 6c): 98.132 and 97.2307 and 99.696 and 69.7907 and 91.5387 and 88.492 and 96.8507 and 82.616"
"CC(NC(=O)CNC(=O)c1cccc(Cl)c1)c1ccccc1 (stereo not shown) [JNJ-63533054, reference compound]",3359.39 and 1792.13 and 2582.49 and 3979.72 and 2080.85 and 9982.78 and 3772.48 and 918.903,932.272 and 989.458 and 1696.51 and 1348.86 and 505.51 and 1391.08 and 1396.99 and 852.786,70.24 and 93.24 and 86.6 and 72.9333 and 95.6533 and 59.4533 and 79.16 and 62.2,809.521 and 300.737 and 1208.9 and 562.14 and 33.766 and 906.8 and 199.588 and 129.938,97.5867 and 98.7467 and 63.5867 and 94.9733 and 100 and 78.9333 and 98.0533 and 99.9733,194.752 and 21.7885 and 924.739 and 354.313 and 27.675 and 233.464 and 23.6513 and 7.655,98.8933 and 100 (4×) and 93.1733 and 95.84 and 98.8533,171.669 and 49.3834 and 612.36 and 167.407 and 0 and 187.813 and 0.8234 and 102.119,99.9467 and 100 (4×) and 97.5333 and 99.0133 and 99.7333,630.708 and 147.757 and 783.223 and 246.73 and 0.6166 and 0.4386 and 0.4195 and 141.542,94.8 and 100 (5×) and 94.6667 and 96.8533,4.719 and 265.963 and 938.142 and 27.3973 and 11.6817 and 61.4941 and 0 and 205.37,100 (5×) and 97.44 and 85.8667 and 98.56,3.326 and 8.572 and 1042.9 and 433.751 and 7.486 and 2.001 and 0.4323 and 246.216,100 (5×) and 84.7333 and 92.4267 and 94.5867,521.05 and 1.596 and 845.25 and 8.083 and 7.72 and 4.549 and 0.4103 and 0.9443,294.43 and 290.485 and 1172.17 and 477.116 and 34.0014 and 4.204 and 168.331 and 0.6994,98.6133 and 97.52 and 87.88 and 86.5333 and 99.8133 and 100 (2×) and 97.44,417.274 and 5.107 and 758.587 and 146.686 and 290.447 and 567.543 and 1.48 and 895.221,94.5733 and 100 (2×) and 95.4133 and 11.7333 and 93.0667 and 88.9333 and 83.48,"thigmotaxis (time in the periphery) (30 mg/kg i.p., vs vehicle): spent more time in the periphery compared to the vehicle group; total distance travelled in the open field arena (30 mg/kg i.p., vs vehicle): results similar to those obtained for JNJ-63533054; Open-field test, thigmotaxis over time (sheet 6d) (40 mins): 97.24 and 100 (6×) and 95.16; Open-field test, thigmotaxis, whole session (sheet 6c): 97.4653 and 94.024 and 95.1893 and 98.6947 and 88.4613 and 85.0307 and 98.8533 and 92.4467"
